In ChEMBL document CHEMBL3779859, “Synergistic activity of a short lipidated antimicrobial peptide (lipoAMP) and colistin or tobramycin against Pseudomonas aeruginosa from cystic fibrosis patients” (Medchemcomm, 2016):
Values after ≈ are worked out from the molar mass of the structure shown. Peptide text beside a SMILES is read from it. * marks the point of attachment. DEAC = CCN(CC)c1ccc2cc(C(=O)*)c(=O)oc2c1; Myristoyl = CCCCCCCCCCCCCC(=O)*; Lauroyl = CCCCCCCCCCCC(=O)*; Decanoyl = CCCCCCCCCC(=O)*; Octanoyl = CCCCCCCC(=O)*; Hexanoyl = CCCCCC(=O)*

Assays:
Assay type in all cases: functional
Pseudomonas aeruginosa [1] = assay: Antibacterial activity against Pseudomonas aeruginosa KD491 clinical isolate after 16 to 20 hrs by microdilution assay
Pseudomonas aeruginosa [2] = assay: Antibacterial activity against Pseudomonas aeruginosa VW1633 clinical isolate after 16 to 20 hrs by microdilution assay
Pseudomonas aeruginosa [3] = assay: Antibacterial activity against Pseudomonas aeruginosa LES431 clinical isolate after 16 to 20 hrs by microdilution assay

| Structure (SMILES) | MIC (Pseudomonas aeruginosa [1]) [µg/mL] | MIC (Pseudomonas aeruginosa [2]) [µg/mL] | MIC (Pseudomonas aeruginosa [3]) [µg/mL] |
| --- | --- | --- | --- |
| CCCCCCCCCC(=O)N[C@@H](CCCNC(=N)N)C(=O)N[C@@H](Cc1c[nH]c2ccccc12)C(=O)N[C@@H](CCCNC(=N)N)C(=O)N[C@@H](Cc1c[nH]c2ccccc12)C(=O)N[C@@H](CCCNC(=N)N)C(=O)N[C@@H](Cc1c[nH]c2ccccc12)C(=O)N[C@@H](CCCCN)C(=O)O (Decanoyl-RWRWRWK-OH) | 32 (≈ 24.1 µM) | 64 (≈ 48.2 µM) | 32 (≈ 24.1 µM) |
| CCN(CC)c1ccc2cc(C(=O)NCCCC[C@H](NC(=O)[C@H](Cc3c[nH]c4ccccc34)NC(=O)[C@H](CCCNC(=N)N)NC(=O)[C@H](Cc3c[nH]c4ccccc34)NC(=O)[C@H](CCCNC(=N)N)NC(=O)[C@H](Cc3c[nH]c4ccccc34)NC(=O)[C@@H](N)CCCNC(=N)N)C(=O)O)c(=O)oc2c1 (H-RWRWRWK(DEAC)-OH) | 64 (≈ 45.2 µM) | 64 (≈ 45.2 µM) | > 128 |
| CCCCCC(=O)NCCCC[C@H](NC(=O)[C@H](Cc1c[nH]c2ccccc12)NC(=O)[C@H](CCCNC(=N)N)NC(=O)[C@H](Cc1c[nH]c2ccccc12)NC(=O)[C@H](CCCNC(=N)N)NC(=O)[C@H](Cc1c[nH]c2ccccc12)NC(=O)[C@@H](N)CCCNC(=N)N)C(=O)O (H-RWRWRWK(Hexanoyl)-OH) | 32 (≈ 25.2 µM) | 16 (≈ 12.6 µM) | > 128 |
| CCCCCCCCCCCC(=O)NCCCC[C@H](NC(=O)[C@H](Cc1c[nH]c2ccccc12)NC(=O)[C@H](CCCNC(=N)N)NC(=O)[C@H](Cc1c[nH]c2ccccc12)NC(=O)[C@H](CCCNC(=N)N)NC(=O)[C@H](Cc1c[nH]c2ccccc12)NC(=O)[C@@H](N)CCCNC(=N)N)C(=O)O (H-RWRWRWK(Lauroyl)-OH) | > 128 | 32 (≈ 23.6 µM) | 64 (≈ 47.2 µM) |
| CCCCCCCCCCCCCC(=O)NCCCC[C@H](NC(=O)[C@H](Cc1c[nH]c2ccccc12)NC(=O)[C@H](CCCNC(=N)N)NC(=O)[C@H](Cc1c[nH]c2ccccc12)NC(=O)[C@H](CCCNC(=N)N)NC(=O)[C@H](Cc1c[nH]c2ccccc12)NC(=O)[C@@H](N)CCCNC(=N)N)C(=O)O (H-RWRWRWK(Myristoyl)-OH) | > 128 | > 128 | 128 (≈ 92.5 µM) |
| CCCCCCCC(=O)NCCCC[C@H](NC(=O)[C@H](Cc1c[nH]c2ccccc12)NC(=O)[C@H](CCCNC(=N)N)NC(=O)[C@H](Cc1c[nH]c2ccccc12)NC(=O)[C@H](CCCNC(=N)N)NC(=O)[C@H](Cc1c[nH]c2ccccc12)NC(=O)[C@@H](N)CCCNC(=N)N)C(=O)O (H-RWRWRWK(Octanoyl)-OH) | 16 (≈ 12.3 µM) | 16 (≈ 12.3 µM) | 128 (≈ 98.5 µM) |
| CCCCCC(=O)N[C@@H](CCCNC(=N)N)C(=O)N[C@@H](Cc1c[nH]c2ccccc12)C(=O)N[C@@H](CCCNC(=N)N)C(=O)N[C@@H](Cc1c[nH]c2ccccc12)C(=O)N[C@@H](CCCNC(=N)N)C(=O)N[C@@H](Cc1c[nH]c2ccccc12)C(=O)N[C@@H](CCCCN)C(=O)O (Hexanoyl-RWRWRWK-OH) | 64 (≈ 50.3 µM) | 32 (≈ 25.2 µM) | > 128 |
